Measured values published in PubChem BioAssay (NCI).
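Five concentrations, 48 hours, 96-well plates. Abbreviation: GI50, concentration required for 50% inhibition of growth. TGI is the concentration that stops growth completely.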

How the values were obtained:
Assay in all cases: growth of human tumour cells (NCI), 48 h
[1] = tested on: SK-MEL-5 melanoma
[2] = tested on: A498 renal
[3] = tested on: SK-MEL-28 melanoma
[4] = tested on: MCF7 breast
[5] = tested on: MOLT-4 leukemia
[6] = tested on: KM12 colon
[7] = tested on: SF-268 CNS
[8] = tested on: NCI-H226 lung
[9] = tested on: CAKI-1 renal
[10] = tested on: NCI-H460 lung

SMILES | TGI [1] [µM] | TGI [2] [µM] | TGI [3] [µM] | TGI [4] [µM] | TGI [5] [µM] | TGI [6] [µM] | TGI [7] [µM] | TGI [8] [µM] | TGI [9] [µM] | TGI [10] [µM] | GI50 [1] [µM] | GI50 [10] [nM] | GI50 [4] [µM] | GI50 [5] [µM] | GI50 [6] [µM] | GI50 [7] [µM] | GI50 [8] [nM]
COc1c2c(cc3c1OCO3)C13C=CC(OC)CC1N(CC3)C2 (configuration not stated) | > 100 | > 100 | > 100 | > 100 | > 100 | > 100 | > 100 | > 100 | > 100 | – | – | – | – | – | – | – | –
CC(=O)OCC1=C(C(=O)O)C(c2ccc3c(c2)OCO3)c2cc3c(cc2O1)OCO3 (configuration not stated) | > 100 | – | > 100 | – | > 100 | – | – | – | > 100 | > 100 | – | – | – | – | – | – | –
O=c1c2ccccc2nc2n1C(c1ccc([N+](=O)[O-])cc1)C2(c1ccccc1)c1ccccc1 (configuration not stated) | > 100 | > 100 | > 100 | > 100 | > 100 | > 100 | > 100 | – | > 100 | > 100 | – | – | – | – | – | – | –
CCC(=O)NC(Nc1cccc(F)c1)(C(F)(F)F)C(F)(F)F | > 100 | – | > 100 | > 100 | > 100 | > 100 | > 100 | – | 93.9 | > 100 | – | – | – | – | – | – | –
NC1(C(=O)O)CCc2ccc(N(CCCl)CCCl)cc2C1 (configuration not stated) | > 100 | > 100 | > 100 | > 100 | 87 | > 100 | 87 | > 100 | – | > 100 | – | – | – | – | – | – | –
CCCC(N)C(=O)c1ccccc1 (configuration not stated) | > 100 | > 100 | > 100 | – | – | > 100 | > 100 | > 100 | > 100 | > 100 | – | – | – | – | – | – | –
O=C(Nc1ccc(Sc2ccc(N=Nc3c(O)c(S(=O)(=O)O)cc4cc(S(=O)(=O)O)ccc34)cc2)cc1)c1ccc(N=Nc2c(O)ccc3c(S(=O)(=O)O)cc(S(=O)(=O)O)cc23)cc1 | 43.3 | > 100 | > 100 | – | 52.1 | > 100 | > 100 | > 100 | > 100 | > 100 | – | – | – | – | – | – | –
Cc1cc(C)c2c(c1)C1=NCCN1C2(O)c1ccc(Cl)cc1 (configuration not stated) | 27.7 | 28.6 | 31 | 34.3 | > 100 | 30 | 31 | – | 31.5 | 29.3 | – | – | – | – | – | – | –
COC(=O)/C=C(/C(=O)OC)c1cc2ccc3c([nH]c4ccccc43)c(C)c-2c1 | 9.18 | 23.5 | 30.2 | 13.3 | 11.5 | 36.5 | 21.4 | 19.8 | > 100 | 18.6 | – | – | – | – | – | – | –
COc1cc(C(=O)C2C(=O)c3ccccc3C2C2(O)c3ccccc3CC2C(O)c2cc(OC)c(OC)c(OC)c2)cc(OC)c1OC (configuration not stated) | > 100 | > 100 | > 100 | > 100 | > 100 | > 100 | > 100 | > 100 | > 100 | > 100 | – | – | – | – | – | – | –
N#CCCN(CCC#N)c1ccc(C(N=Nc2ccccc2)=Nc2ccc(Cl)cc2)cc1 | > 100 | > 100 | > 100 | > 100 | > 100 | > 100 | > 100 | > 100 | > 100 | > 100 | – | – | – | – | – | – | –
Fc1ccc(-c2nn3c(-c4cc(C(F)(F)F)cc(C(F)(F)F)c4)nnc3s2)cc1 | > 50 | – | – | > 50 | > 50 | > 50 | > 50 | > 50 | – | > 50 | 4.42 | 1620 | > 50 | > 50 | > 50 | 3.03 | 1490
N#CC(Nc1cccc(C(F)(F)F)c1)c1ccccc1C(F)(F)F (configuration not stated) | 32.1 | 34.2 | 31.8 | – | 40.5 | 19.9 | 32.2 | 30.4 | 9.09 | 29.9 | – | – | – | – | – | – | –
Cc1c(-c2ccccc2)c(C#N)c2nnn(C3CCCCC3)c(=O)n12 | > 100 | > 100 | > 100 | > 100 | – | > 100 | > 100 | > 100 | 47.1 | > 100 | – | – | – | – | – | – | –
CC(C)(C)OC(=O)NCCC(=O)NC1(c2cc3ccccc3s2)CCCCC1 | 25.9 | 45.4 | 35 | 41 | 28.5 | 33.5 | – | 42.4 | 48.6 | 34.3 | – | – | – | – | – | – | –
CCCCCCCNC(P(=O)(O)O)P(=O)(O)O | > 100 | > 100 | > 100 | > 100 | > 100 | > 100 | > 100 | > 100 | > 100 | > 100 | – | – | – | – | – | – | –
